# Results reported in patent US8912216B2, “Hetaryl-[1,8]naphthyridine derivatives” (Merck Patent GmbH, priority 2010, dated 2014).
# pIC50: −log10 of the molar value.
# Experiments:
# [1] = biological target: T1, GST-ALK5 (Homo sapiens, UniProt P36897); experiment: In-vitro (enzyme) kinase assay, 384-well flashplate (Example 36); format: biochemical; settings: GST-ALK5, GST-SMAD2 substrate, 3 mM ATP, 30° C., 45 min; read-out: TβR activity (Example 36)
# T1 sequence (P36897 34-503): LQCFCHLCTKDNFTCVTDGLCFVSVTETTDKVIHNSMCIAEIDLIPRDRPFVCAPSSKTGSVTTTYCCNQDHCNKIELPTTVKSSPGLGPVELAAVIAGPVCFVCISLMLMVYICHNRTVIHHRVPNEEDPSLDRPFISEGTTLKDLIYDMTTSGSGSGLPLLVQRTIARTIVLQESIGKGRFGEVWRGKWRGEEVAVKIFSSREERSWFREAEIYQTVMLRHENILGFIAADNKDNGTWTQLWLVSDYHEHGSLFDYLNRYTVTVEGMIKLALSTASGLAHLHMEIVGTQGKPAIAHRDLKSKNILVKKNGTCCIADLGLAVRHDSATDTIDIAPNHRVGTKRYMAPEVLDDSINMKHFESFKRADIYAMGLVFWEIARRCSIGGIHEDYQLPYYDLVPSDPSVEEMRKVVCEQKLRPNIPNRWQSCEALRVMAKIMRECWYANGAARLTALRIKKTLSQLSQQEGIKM
# Outline: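 Radiometric flashplate assay: 31.2 nM GST-ALK5 phosphorylating 439 nM GST-SMAD2 with 3 mM ATP plus ³³P-ATP, in HEPES/MgCl2/MnCl2/DTT/BSA buffer pH 7.4, 45 min at 30 °C, 5-10 compound concentrations. EDTA stop, filtration and washing, then radioactivity counted; IC50 derived from the curve.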
# [2] = tested on: TGF-beta-induced phosphorylation of Smad2 and Smad3 in Mv1-Lu cells; experiment: Inhibition of Smad2/3 phosphorylation in Mv1Lu cells (Example 35A); format: cell-based, mink Mustela vison; settings: Neogale vison, Mv1-Lu cells, TGF-beta 1 5 ng/ml, phospho-Smad2/3 ELISA, read-out: TβR activity (Example 35A)
# Outline: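 Serum-starved (16-20 h) Mv1-Lu mink lung epithelial cells were pre-incubated 1.5 h with compound dilutions (0.2% DMSO), then stimulated 1 h with 5 ng/ml TGF-beta 1. Phospho-Smad2 (Ser465/467)/Smad3 (Ser423/425) in lysates was measured by ELISA. IC50 came from dose-response fits between stimulated and unstimulated controls.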
Structure (SMILES),pIC50 [1],pIC50 [2]
"CN1CCN(c2ccc(-c3cncc(-c4cc(-c5ccccc5F)nc5ncccc45)n3)cn2)CC1 [compound 82, 2-(2-Fluoro-phenyl)-4-{6-[6-(4-methyl-piperazin-1-yl)-pyridin-3-yl]-pyrazin-2-yl}-[1,8]naphthyridine]",> 7.00,6.00 to 7.00
"OCCn1cc(-c2cncc(-c3cc(-c4ccccc4F)nc4ncccc34)n2)cn1 [compound 83, 2-(4-{6-[2-(2-Fluoro-phenyl)-[1,8]naphthyridin-4-yl]-pyrazin-2-yl}-pyrazol-1-yl)-ethanol]",> 7.00,5.00 to 6.00
OC/C=C/Cn1cc(-c2cncc(-c3cc(-c4ccccc4F)nc4ncccc34)c2)cn1 [compound 84],> 7.00,6.00 to 7.00
"CN1CCC(n2cc(-c3cncc(-c4cc(-c5ccccc5F)nc5ncccc45)n3)cn2)CC1 [compound 85, 2-(2-Fluoro-phenyl)-4-{6-[1-(1-methyl-piperidin-4-yl)-1H-pyrazol-4-yl]-pyrazin-2-yl}-[1,8]naphthyridine]",> 7.00,6.00 to 7.00
"CN1CCN(CCCn2cc(-c3cncc(-c4cc(-c5ccccc5F)nc5ncccc45)c3)cn2)CC1 [compound 86, 2-(2-Fluoro-phenyl)-4-(5-{1-[3-(4-methyl-piperazin-1-yl)-propyl]-1H-pyrazol-4-yl}-pyridin-3-yl)-[1,8]naphthyridine]",> 7.00,6.00 to 7.00
"Fc1ccccc1-c1cc(-c2cncc(-c3cnn(CCCN4CCOCC4)c3)c2)c2cccnc2n1 [compound 87, 2-(2-Fluoro-phenyl)-4-{5-[1-(3-morpholin-4-yl-propyl)-1H-pyrazol-4-yl]-pyridin-3-yl}-[1,8]naphthyridine]",> 7.00,6.00 to 7.00
"OCC(O)Cn1cc(-c2cncc(-c3cc(-c4cc(F)ccc4F)nc4ncccc34)c2)cn1 (centres unmarked) [compound 88, 3-(4-{5-[2-(2,5-Difluoro-phenyl)-[1,8]naphthyridin-4-yl]-pyridin-3-yl}-pyrazol-1-yl)-propane-1,2-diol]",> 7.00,5.00 to 6.00

# Other lines, results leading:
pIC50 [1],pIC50 [2],Structure (SMILES)
> 7.00,6.00 to 7.00,"OCCCn1cc(-c2cncc(-c3cc(-c4cc(F)ccc4F)nc4ncccc34)c2)cn1 [compound 89, 3-(4-{5-[2-(2,5-Difluoro-phenyl)-[1,8]naphthyridin-4-yl]-pyridin-3-yl}-pyrazol-1-yl)-propan-1-ol]"
> 7.00,> 7.00,"OCCn1cc(-c2cncc(-c3cc(-c4cc(Cl)ccc4F)nc4ncccc34)c2)cn1 [compound 91, 2-(4-{5-[2-(5-Chloro-2-fluoro-phenyl)-[1,8]naphthyridin-4-yl]-pyridin-3-yl}-pyrazol-1-yl)-ethanol]"
> 7.00,> 7.00,"CN1CCN(c2ccc(-c3cncc(-c4cc(-c5cc(Cl)ccc5F)nc5ncccc45)c3)cc2)CC1 [compound 92, 2-(5-Chloro-2-fluoro-phenyl)-4-{5-[4-(4-methyl-piperazin-1-yl)-phenyl]-pyridin-3-yl}-[1,8]naphthyridine]"
> 7.00,> 7.00,"CN1CCN(c2ccc(-c3cncc(-c4cc(-c5cc(Cl)ccc5F)nc5ncccc45)c3)cn2)CC1 [compound 93, 2-(5-Chloro-2-fluoro-phenyl)-4-[6′-(4-methyl-piperazin-1-yl)-[3,3′]bipyridinyl-5-yl]-[1,8]naphthyridine]"
> 7.00,> 7.00,"Fc1ccc(Cl)cc1-c1cc(-c2cncc(-c3ccc(N4CCNCC4)cc3)c2)c2cccnc2n1 [compound 94, 2-(5-Chloro-2-fluoro-phenyl)-4-[5-(4-piperazin-1-yl-phenyl)-pyridin-3-yl]-[1,8]naphthyridine]"
> 7.00,6.00 to 7.00,"Fc1ccc(Cl)cc1-c1cc(-c2cncc(-c3ccc(N4CCNCC4)nc3)c2)c2cccnc2n1 [compound 95, 2-(5-Chloro-2-fluoro-phenyl)-4-(6′-piperazin-1-yl-[3,3′]bipyridinyl-5-yl)-[1,8]naphthyridine]"
